How the values were obtained:
S. cerevisiae PE2 = assay: S. cerevisiae salt and GVL toxicity testing (growth, OD600); assay type: cell-based; settings: S. cerevisiae PE2, optical density after 40 hr of growth, 30° C., Yeast Nitrogen Base, 0.5% glucose plus wt % GVL or NaCl; FIGS. 22A/22B
Protocol: The strain used in these experiments was S. cerevisiae PE2 and in all cases was grown at 30° C. The toxicity medium used was formulated using 10x Yeast Nitrogen Base without Amino Acids, 0.5% glucose and the appropriate wt % of GVL or sodium chloride (Sigma). A single colony of S. cerevisiae was picked from YPD agar and grown overnight in 5 ml of YPD media (glass culture tubes, 20×150 mm, Fisher Scientific) agitated at 250 rpm in the incubator shaker. The resulting solution was used to inoculate 2 ml of the toxicity medium to an OD600 of 0.01 in 13×100 mm tubes (Fisher Scientific). The tubes were incubated for 40 hours under same conditions and sampled as described above.

E. coli MG1655 = assay: E. coli salt and GVL toxicity testing (growth, OD600); assay type: cell-based; settings: E. coli MG1655, optical density after 24 hr of growth, 37° C., MOPS minimal media with 0.5% glucose plus wt % GVL or NaCl; FIGS. 22A/22B
Protocol: The strain used in these experiments was wild type E. coli MG1655 and in all cases was grown at 37° C. The toxicity medium used was based on MOPS minimal media with 0.5% glucose and supplemented with the appropriate wt % of GVL or sodium chloride (Sigma). A single colony of E. coli was picked from LB agar and grown overnight in 5 ml of LB media (glass culture tubes, 20×150 mm, Fisher Scientific) agitated at 250 rpm in an incubator shaker (New Brunswick Scientific). The resulting solution was used to inoculate 2 ml of the toxicity medium to an OD600 of 0.01 in 13×100 mm tubes (Fisher Scientific). The tubes were incubated for 24 hours under the same conditions as described in the main methods and a final OD600 measured using a Biomate 3 spectrophotometer (ThermoFisher).

| SMILES | effect of concentration on microbial growth (optical density) (S. cerevisiae PE2) | effect of concentration on microbial growth (optical density) (E. coli MG1655) |
| --- | --- | --- |
| CC1CCC(=O)O1 (stereo not shown) [GVL, gamma-valerolactone] | can inhibit microbial growth | can inhibit microbial growth |
| [Cl-].[Na+] [NaCl, sodium chloride] | can inhibit microbial growth | can inhibit microbial growth |

Reference: patent US9359650B2, “Biomass pre-treatment for co-production of high-concentration C5- and C6-carbohydrates and their derivatives” (Wisconsin Alumni Research Foundation, priority 2013, dated 2016)
